This passage reports inhibition results from patent USRE36832E, “N-heteroaryl-N'-phenylurea derivatives, their production and use” (Nihon Nohyaku Co., LTD, priority 1993, dated 2000).

SMILES strings stand for the structures.

As a reminder, the inhibition is how much of the control response was suppressed.

The target of this assay is T1, acyl-CoA:cholesterol O-acyltransferase (ACAT) (Oryctolagus cuniculus, UniProt G1SFD9).
T1 construct: The intestinal mucosa of a white rabbit was homogenized and microsomal fraction was obtained by stepwise centrifugation; from tissue; host or cells: intestinal mucosa of white rabbit, microsomal fraction
T1 sequence (G1SFD9 1-524): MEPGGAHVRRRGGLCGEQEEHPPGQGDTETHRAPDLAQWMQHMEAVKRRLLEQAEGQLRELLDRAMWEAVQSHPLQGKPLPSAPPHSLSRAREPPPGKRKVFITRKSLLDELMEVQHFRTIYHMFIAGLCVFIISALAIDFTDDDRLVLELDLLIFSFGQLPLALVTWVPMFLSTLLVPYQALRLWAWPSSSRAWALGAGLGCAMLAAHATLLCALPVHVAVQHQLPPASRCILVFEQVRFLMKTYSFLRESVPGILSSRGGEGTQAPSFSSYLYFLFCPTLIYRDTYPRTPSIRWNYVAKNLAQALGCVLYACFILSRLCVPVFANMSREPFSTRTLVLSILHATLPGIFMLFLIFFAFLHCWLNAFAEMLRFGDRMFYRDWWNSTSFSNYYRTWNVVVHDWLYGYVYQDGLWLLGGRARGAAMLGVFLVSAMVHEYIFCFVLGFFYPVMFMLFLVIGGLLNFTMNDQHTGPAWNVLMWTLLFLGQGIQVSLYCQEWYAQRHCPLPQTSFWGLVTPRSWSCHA
Briefly: Inhibitory activity on acyl-CoA:cholesterol O-acyltransferase (ACAT), intestinal mucosa microsomal fraction, [1-14C]oleyl-CoA incorporation into cholesterol esters. The class given is biochemical, white rabbit. To be noted: read-out: Inhibition rate %. On the procedure:
Inhibitory activity on acyl-CoA:cholesterol Oacyltransferase (ACAT)
The enzyme used in the test was prepared according to the method of Heider et al. [J. Lipid, Res. 24, 1127 (1983)]. The intestinal mucosa of a white rabbit was homogenized and microsomal fraction was obtained by stepwise centrifugation. The microsomal fraction was suspended in 0,154M phosphate buffer (pH 0 7.4) and stored at -80° C. until use.
ACAT activity was determined by a modification of the method of Helgerud et al. [J. Lipid Res. 22, 271 (1981)] by measuring radioactivity incorporated into cholesterol esters from [1-14C]oleyl-CoA, as an indication. As to the ACAT-inhibiting activity of each compound to be tested, the inhibition rate was calculated by the following equation.

Regarding `Cc1cc(C)c2oc(NC(=O)Nc3c(F)cc(F)cc3F)c(-c3ccccc3Cl)c2c1` [Compound 48, N-[3-(2-Chlorophenyl)-5,7-dimethylbenzofuran-2-yl]-N'-(2,4,6-trifluorophenyl)urea], the inhibition at 0.01 µM amounted to 6.8% and the inhibition at 1 µM turned out to be 95.6%. With `CSc1ccccc1-c1c(NC(=O)Nc2c(C(C)C)cccc2C(C)C)oc2ccc(Cl)cc12` [Compound 63, N-[5-Chloro-3-(2-methylthiophenyl)benzofuran-2-yl]-N'-(2,6-diisopropylphenyl)urea], the inhibition at 0.01 µM turned out to be 72.1%. Still for that read-out and setting: next, `Cc1cc2sc(NC(=O)Nc3c(C)cccc3C(C)C)c(-c3ccccc3Cl)c2cc1C` [Compound 82, N-[3-(2-Chlorophenyl)-5,6-dimethyl-1-benzothiophen-2-yl]-N'-(2-isopropyl-6-methylphenyl)urea]: 67%. The same measure, in the same setting: in the case of `O=C(Nc1ccc(F)cc1F)Nc1sc2cc3c(cc2c1-c1ccccc1Cl)CCCC3` [Compound 99, N-[3-(2-Chlorophenyl)-5,6,7,8-tetrahydronaphtho[2,3-b]thiophen-2-yl]-N'-(2,4-difluorophenyl)urea] it was 90.1%; in that of `CC(C)c1cccc(C(C)C)c1NC(=O)Nc1oc2ccc(Cl)cc2c1-c1ccccc1F` [Compound 58, N-[5-Chloro-3-(2-fluorophenyl)benzofuran-2-yl]-N'-(2,6-diisopropylphenyl)urea], 69.2%; in that of `Cc1cccc(C)c1NC(=O)Nc1sc2cc3c(cc2c1-c1ccccc1Cl)CCC3` [Compound 87, N-[3-(2-Chlorophenyl)-6,7-dihydro-5H-cyclopenta[f][1]benzothiophen-2-yl]-N'-(2,6-dimethylphenyl)urea], 60.4%. Consider `O=C(Nc1ccccc1)Nc1oc2ccc(Cl)cc2c1-c1ccccc1Cl` [Compound 4, N-[5-Chloro-3-(2-chlorophenyl)benzofuran-2-yl]-N'-phenylurea], for which the inhibition at 1 µM is 77.9%. As for `Cc1cc2oc(NC(=O)Nc3c(C)cccc3C(C)C)c(-c3ccccc3Cl)c2cc1C` [Compound 39], the inhibition at 0.01 µM turned out to be 70.9% and the inhibition at 1 µM worked out at 99.4%. The like results for `Cc1cc(C)c2oc(NC(=O)Nc3c(C(C)C)cccc3C(C)C)c(-c3ccccc3Cl)c2c1` [Compound 43, N-[3-(2-Chlorophenyl)-5,7-dimethylbenzofuran-2-yl]-N'-(2,6-diisopropylphenyl)urea] were, in that order, 52.1% and 99.5%. With `Cc1cccc(N(C)C)c1NC(=O)Nc1sc2cc3c(cc2c1-c1ccccc1Cl)CCC3` [Compound 91], the inhibition at 0.01 µM is 65%. Consider `Cc1cccc(C(C)C)c1NC(=O)Nc1sc2cc3c(cc2c1-c1ccccc1Cl)CCCC3` [Compound 98, N-[3-(2-Chlorophenyl)-5,6,7,8-tetrahydronaphtho[2,3-b]thiophen-2-yl]-N'-(2-isopropyl-6-methylphenyl)urea], for which the inhibition at 0.01 µM is 66%. The same measure, in the same setting: next, `CCc1cccc(CC)c1NC(=O)Nc1oc2ccc(Cl)cc2c1-c1ccccc1SC` [Compound 62, N-[5-Chloro-3-(2-methylthiophenyl)benzofuran-2-yl]-N'-(2,6-diethylphenyl)urea]: 91.6%. Turning to `O=C(Nc1ccccc1C(F)(F)F)Nc1oc2ccc(Cl)cc2c1-c1ccccc1Cl` [Compound 7, N-[5-Chloro-3-(2-chlorophenyl)benzofuran-2-yl]-N'-(2-trifluoromethylphenyl)urea], the inhibition at 0.01 µM is 37.2% and the inhibition at 1 µM was 99.1%.

Regarding `CCCCCCc1ccc2oc(NC(=O)Nc3c(C(C)C)cccc3C(C)C)c(-c3ccccc3Cl)c2c1` [Compound 27, N-[3-(2-Chlorophenyl)-5-n-hexylbenzofuran-2-yl]-N'-(2,6-diisopropylphenyl)urea], the inhibition at 0.01 µM turned out to be 63.5%.

Consider `Cc1ccc(S(=O)(=O)n2c(NC(=O)Nc3ccc(F)cc3F)c(-c3ccccc3Cl)c3cc(C)cc(C)c32)cc1` [Compound 122, N-[3-(2-Chlorophenyl)-5,7-dimethyl-1-(p-toluenesulfonyl)indole-2-yl]-N'-(2,4-difluorophenyl)urea], for which the inhibition at 1 µM was determined as 75.4%. On to `O=C(Nc1ccc(F)cc1F)Nc1sc2cc3c(cc2c1-c1ccc(Cl)cc1Cl)CCC3` [Compound 107, N-[3-(2,4-Dichlorophenyl)-6,7-dihydro-5H-cyclopenta[f][1]benzothiophen-2-yl]-N'-(2,4-difluorophenyl)urea], for which the inhibition at 0.01 µM stood at 36.2%. Consider `Cc1ccccc1-c1c(NC(=O)Nc2c(C(C)C)cccc2C(C)C)oc2ccc(Cl)cc12` [Compound 61, N-[5-Chloro-3-(2-methylphenyl)benzofuran-2-yl]-N'-(2,6-diisopropylphenyl)urea], for which the inhibition at 0.01 µM came to 65.6%. `Cc1cc(C)c2oc(NC(=O)Nc3c(F)cccc3F)c(-c3ccccc3Cl)c2c1` [Compound 47, N-[3-(2-Chlorophenyl)-5,7-dimethylbenzofuran-2-yl]-N'-(2,6-difluorophenyl)urea]: the inhibition at 1 µM came out at 93%. `O=C(Nc1sc2cc3c(cc2c1-c1ccccc1Cl)CCC3)Nc1c(Cl)cccc1Cl` [Compound 95, N-[3-(2-Chlorophenyl)-6,7-dihydro-5H-cyclopenta[f][1]benzothiophen-2-yl]-N'-(2,6-dichlorophenyl)urea]: the inhibition at 0.01 µM worked out at 66.4%. On the same count and under the same terms, next, `Cc1cc2sc(NC(=O)Nc3c(C(C)C)cccc3C(C)C)c(-c3ccccc3Cl)c2cc1C` [Compound 81, N-(3-(2-Chlorophenyl)-5,6-dimethyl-1-benzothiophen-2-yl]-N'-(2,6-diisopropylphenyl)urea]: 41.4%; `CCc1ccc2oc(NC(=O)Nc3ccc(F)cc3F)c(-c3ccccc3Cl)c2c1` [Compound 26, N-[-3-(2-Chlorophenyl)-5-ethylbenzofuran-2-yl]-N'-(2,4-difluorophenyl)urea]: 41.2%; `Cc1ccccc1-c1c(NC(=O)Nc2ccc(F)cc2F)sc2cc3c(cc12)CCCC3` [Compound 119, N-(2,4-Difluorophenyl)-N'-[3-(2-methylphenyl)5,6,7,8-tetrahydronaphtho [2,3-b]thiophen-2-yl]urea]: 79.5%. Still for that read-out and setting: next, `Cc1cc2sc(NC(=O)Nc3ccc(F)cc3F)c(-c3ccccc3Cl)c2cc1C` [Compound 84, N-[3-(2-Chlorophenyl)-5,6-dimethyl-1-benzothiophen-2-yl]-N'-(2,4-difluorophenyl)urea]: 78.6%.

Take `COc1ccc2oc(NC(=O)Nc3c(C(C)C)cccc3C(C)C)c(-c3ccccc3Cl)c2c1` [Compound 30, N-[3-(2-Chlorophenyl)-5-methoxybenzofuran-2-yl]-N'-(2,6-diisopropylphenyl)urea]: the inhibition at 0.01 µM was 58.4%.

Consider `O=C(Nc1sc2cc3c(cc2c1-c1ccccc1Cl)CCC3)Nc1c(F)cccc1F` [Compound 93, N-[3-(2-Chlorophenyl)-6,7-dihydro-5H-cyclopenta[f][1]benzothiophen-2-yl]-N'-(2,6-difluorophenyl)urea], for which the inhibition at 0.01 µM amounted to 69.7%. Still for that read-out and setting: in the case of `O=C(Nc1ccc(F)cc1F)Nc1sc2cc3c(cc2c1-c1ccccc1Cl)CCC3` [Compound 92, N-(3-(2-Chlorophenyl)-6,7-dihydro-5H-cyclopenta[f][1]benzothiophen-2-yl]-N'-(2,4-difluorophenyl)urea] it was 81.7%; in that of `CCc1cccc(CC)c1NC(=O)Nc1sc2cc3c(cc2c1-c1ccccc1Cl)CCCC3` [Compound 96, N-[3-(2-Chlorophenyl)-5,6,7,8-tetrahydronaphthono[2,3-b]thiophen-2-yl]-N'-(2,6-diethylphenyl)urea], 80.7%. Take `Cc1cc(C)c(NC(=O)Nc2oc3c(C)cc(C)cc3c2-c2ccccc2Cl)c(C)c1` [Compound 45, N-[3-(2-Chlorophenyl)-5,7-dimethylbenzofuran-2-yl]-N'-(2,4,6-trimethylphenyl)urea]: the inhibition at 1 µM was found to be 94%. Take `Cc1cc(C)c2oc(NC(=O)Nc3ccc(F)cc3F)c(-c3ccccc3Cl)c2c1` [Compound 46, N-[3-(2-Chlorophenyl)-5,7-dimethylbenzofuran-2-yl]-N'-(2,4-difluorophenyl)urea]: the inhibition at 1 µM is 92.7%. For `CC(C)c1cccc(C(C)C)c1NC(=O)Nc1sc2ccc([N+](=O)[O-])cc2c1-c1ccc(Cl)cc1Cl` [Compound 100, N-[3-(2,4-Dichlorophenyl)-5-nitro-1-benzothiophen-2-yl]-N'-(2,6-diisopropylphenyl)urea], the inhibition at 0.01 µM was found to be 18.4%.
